The target of the experiment is Acetyl-CoA carboxylase 1 (Homo sapiens, UniProt Q13085). Briefly: Inhibition of ACC1 in human HepG2 cells assessed as lipid content using 13C-labelled acetate as substrate incubated for 1 hr followed by substrate addition and measured after 24 hrs by QTOF mass spectrometer. Format: cell-based.

In general, EC50 refers to the concentration needed to bring the measured effect to its halfway point. On to `COc1ccccc1[C@H](Cn1c(=O)n(C(C)(C)C(=O)NS(=O)(=O)C2(C)CC2)c(=O)c2c(C)c(-c3ncco3)sc21)O[C@@H]1C[C@H]2CC[C@@H](C1)O2`, for which the EC50 turned out to be 1 nM.

For the compound `COc1ccccc1[C@H](Cn1c(=O)n(C2(C(=O)NS(=O)(=O)C3(C)CC3)CC2)c(=O)c2c(C)c(-n3nccn3)sc21)O[C@@H]1C[C@H]2CC[C@@H](C1)O2`, the 50% effective concentration (EC50) stood at 1 nM.

Consider `COc1ccccc1[C@H](Cn1c(=O)n(C(C)(C)C(=O)NS(=O)(=O)C2(C)CC2)c(=O)c2c(C)c(-n3nccn3)sc21)O[C@@H]1C[C@H]2CC[C@@H](C1)O2`, for which the 50% effective concentration (EC50) was 1 nM.

As to `Cc1c(-n2nccn2)sc2c1c(=O)n(C1(C(=O)NS(=O)(=O)C3(C)CC3)CC1)c(=O)n2C[C@H](O[C@@H]1C[C@H]2CC[C@@H](C1)O2)c1cc(F)ccc1OC(F)F`, the EC50 amounted to 0.9 nM.

Regarding `COc1ccccc1[C@H](Cn1c(=O)n([C@H](C)C(=O)NS(=O)(=O)C2(C)CC2)c(=O)c2c(C)c(-c3ncco3)sc21)O[C@@H]1C[C@H]2CC[C@@H](C1)O2`, the concentration giving a half-maximal response (EC50) came out at 1 nM.

Turning to `COc1ccc(F)cc1[C@H](Cn1c(=O)n(C(C)(C)C(=O)NS(=O)(=O)C2(C)CC2)c(=O)c2c(C)c(-n3nccn3)sc21)O[C@@H]1C[C@H]2CC[C@@H](C1)O2`, the EC50 was 0.3 nM.

The values are drawn from ChEMBL document CHEMBL4814075, “Novel Thienopyrimidines as Acetyl-CoA Carboxylase Inhibitors for Treating Liver Diseases” (ACS Med Chem Lett, 2021).
